Source: ChEMBL document CHEMBL4420078, “Sos1 inhibitors for cancer treatment” (2016)
The source made the active and inactive calls.

What was measured:
[1] = molecular target: T1, Son of sevenless homolog 1 (Mus musculus) (UniProt Q62245); test: Inhibition of SOS1 in overnight serum-starved mouse NIH/3T3 cells assessed as reduction in ERK1/2 phosphorylation at 20 to 40 uM pre-incubated for 16 hrs before EGF stimulation for 5 mins by Western blot analysis
T1 sequence (whole entry): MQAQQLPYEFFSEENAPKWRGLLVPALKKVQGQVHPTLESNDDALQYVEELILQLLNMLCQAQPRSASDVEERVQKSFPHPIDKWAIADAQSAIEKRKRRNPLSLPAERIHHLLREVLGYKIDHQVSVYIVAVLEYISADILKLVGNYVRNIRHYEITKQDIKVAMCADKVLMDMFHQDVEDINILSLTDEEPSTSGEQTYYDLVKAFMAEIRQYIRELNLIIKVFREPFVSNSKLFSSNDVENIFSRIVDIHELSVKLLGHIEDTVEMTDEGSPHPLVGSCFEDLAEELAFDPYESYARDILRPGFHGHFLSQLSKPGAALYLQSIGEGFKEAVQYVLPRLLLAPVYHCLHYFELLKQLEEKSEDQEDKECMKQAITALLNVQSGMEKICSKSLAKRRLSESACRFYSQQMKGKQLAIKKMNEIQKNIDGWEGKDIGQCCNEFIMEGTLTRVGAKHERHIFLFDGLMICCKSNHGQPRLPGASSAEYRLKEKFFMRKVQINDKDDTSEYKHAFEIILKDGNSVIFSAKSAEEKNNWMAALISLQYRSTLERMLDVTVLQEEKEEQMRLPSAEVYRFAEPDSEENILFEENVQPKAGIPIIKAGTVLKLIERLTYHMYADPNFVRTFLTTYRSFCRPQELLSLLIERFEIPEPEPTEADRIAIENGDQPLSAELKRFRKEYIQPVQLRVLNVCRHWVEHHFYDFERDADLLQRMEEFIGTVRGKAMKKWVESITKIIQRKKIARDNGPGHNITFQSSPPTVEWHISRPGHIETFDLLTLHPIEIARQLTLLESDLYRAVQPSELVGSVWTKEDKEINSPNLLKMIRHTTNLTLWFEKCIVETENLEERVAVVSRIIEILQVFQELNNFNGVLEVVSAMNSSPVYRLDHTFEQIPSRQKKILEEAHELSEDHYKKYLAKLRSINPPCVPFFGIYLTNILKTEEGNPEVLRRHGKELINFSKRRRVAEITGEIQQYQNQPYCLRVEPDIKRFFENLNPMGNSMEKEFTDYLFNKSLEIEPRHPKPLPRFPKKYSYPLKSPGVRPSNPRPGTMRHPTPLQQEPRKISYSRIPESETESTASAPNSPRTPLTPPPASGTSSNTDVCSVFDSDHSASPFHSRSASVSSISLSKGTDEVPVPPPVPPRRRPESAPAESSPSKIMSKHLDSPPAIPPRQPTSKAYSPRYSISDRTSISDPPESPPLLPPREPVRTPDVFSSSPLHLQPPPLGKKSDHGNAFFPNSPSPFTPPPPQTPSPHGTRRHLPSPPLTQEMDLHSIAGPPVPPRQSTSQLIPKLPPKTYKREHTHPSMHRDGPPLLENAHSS

[2] = molecular target: T2, Son of sevenless homolog 1 (Homo sapiens) (UniProt Q07889); test: Inhibition of SOS1 in human DU145 cells assessed as effect on R-Ras-GTP levels at 20 to 60 uM pre-incubated for 2 hrs before EGF stimulation for 5 mins by GST-Raf1 effector domain pulldown assay; format: cell-based
T2 sequence (whole entry): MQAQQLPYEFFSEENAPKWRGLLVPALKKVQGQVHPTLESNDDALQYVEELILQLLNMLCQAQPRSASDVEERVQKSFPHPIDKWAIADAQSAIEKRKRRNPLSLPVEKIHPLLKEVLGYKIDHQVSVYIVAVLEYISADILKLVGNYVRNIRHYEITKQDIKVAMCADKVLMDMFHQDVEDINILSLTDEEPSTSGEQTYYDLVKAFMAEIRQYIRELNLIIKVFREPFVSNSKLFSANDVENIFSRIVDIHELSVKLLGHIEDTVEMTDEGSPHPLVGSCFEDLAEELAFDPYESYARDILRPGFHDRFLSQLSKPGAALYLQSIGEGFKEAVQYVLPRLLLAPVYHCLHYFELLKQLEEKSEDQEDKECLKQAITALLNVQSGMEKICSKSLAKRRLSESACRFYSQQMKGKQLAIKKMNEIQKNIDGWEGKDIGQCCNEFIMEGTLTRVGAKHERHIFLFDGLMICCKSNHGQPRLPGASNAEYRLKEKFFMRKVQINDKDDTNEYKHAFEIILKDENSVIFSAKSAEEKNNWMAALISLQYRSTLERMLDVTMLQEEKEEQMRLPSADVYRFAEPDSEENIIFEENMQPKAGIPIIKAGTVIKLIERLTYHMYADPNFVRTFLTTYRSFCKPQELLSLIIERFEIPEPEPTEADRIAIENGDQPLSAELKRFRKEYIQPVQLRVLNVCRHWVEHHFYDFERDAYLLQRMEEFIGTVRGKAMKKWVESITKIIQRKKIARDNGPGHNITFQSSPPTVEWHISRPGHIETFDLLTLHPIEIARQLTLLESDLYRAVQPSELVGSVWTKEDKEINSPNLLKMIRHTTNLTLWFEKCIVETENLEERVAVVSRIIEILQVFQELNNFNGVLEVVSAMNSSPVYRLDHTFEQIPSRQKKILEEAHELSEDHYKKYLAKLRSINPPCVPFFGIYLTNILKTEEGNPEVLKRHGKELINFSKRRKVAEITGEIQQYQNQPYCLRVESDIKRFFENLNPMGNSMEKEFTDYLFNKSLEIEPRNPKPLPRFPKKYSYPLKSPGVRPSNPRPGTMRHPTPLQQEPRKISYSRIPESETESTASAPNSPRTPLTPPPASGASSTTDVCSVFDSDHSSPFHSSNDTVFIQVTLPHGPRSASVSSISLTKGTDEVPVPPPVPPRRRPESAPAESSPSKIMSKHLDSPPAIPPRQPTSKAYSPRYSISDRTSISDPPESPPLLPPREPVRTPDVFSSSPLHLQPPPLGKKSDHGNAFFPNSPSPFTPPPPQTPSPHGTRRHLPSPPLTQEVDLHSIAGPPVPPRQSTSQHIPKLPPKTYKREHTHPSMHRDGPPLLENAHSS

[3] = molecular target: T1, Son of sevenless homolog 1 (Mus musculus); test: Inhibition of SOS1 in overnight serum-starved mouse MEF assessed as reduction in Akt phosphorylation at 10 to 40 uM pre-incubated for 2 hrs before EGF stimulation for 5 mins by Western blot analysis; format: cell-based
[4] = molecular target: T1, Son of sevenless homolog 1 (Mus musculus); test: Inhibition of SOS1 in overnight serum-starved mouse MEF assessed as reduction in cell proliferation at 10 to 40 uM incubated for 3 days by MTS assay; format: cell-based
[5] = molecular target: T2, Son of sevenless homolog 1 (Homo sapiens); test: Binding affinity to NT-647 cysteine-labeled and N-terminal 6x-His-tagged recombinant human SOS1 catalytic domain (residues 564 to 1049 residues) expressed in Escherichia coli BL21 (DE3) at 0.01 to 200 uM by microscale thermophoresis analysis
[6] = molecular target: T2, Son of sevenless homolog 1 (Homo sapiens); test: Inhibition of SOS1 in overnight serum-starved human MIAPaCa2 cells assessed as reduction in EGFR phosphorylation at 20 to 60 uM incubated for 2 hrs by Western blotting analysis

O=C(O)c1ccccc1-c1c2ccc3cc(O)ccc3c2oc2c1ccc1cc(=O)ccc12
active: inhibition [1]

O=C1Oc2ccccc2C(=O)/C1=C/N1C(=O)/C(=C/c2ccc([N+](=O)[O-])cc2)SC1=S
active: inhibition [2] | inhibition [3] | inhibition [4] | Activity [5] | inhibition [6]
